Assay results: PubChem BioAssay (NCI)
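Exposure lasted 48 hours, with cells grown in 96-well plates and compounds tested at five concentrations. Definition used: TGI = concentration required for complete inhibition of growth.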

Columns and labels:
Experiment in all cases: NCI tumour cell line growth inhibition, 48 h
786-0 renal = system: 786-0 renal
A498 renal = system: A498 renal
A549 NSCLC = system: A549 NSCLC
ACHN renal = system: ACHN renal
BT-549 breast = system: BT-549 breast
CAKI-1 renal = system: CAKI-1 renal
CCRF-CEM leukemia = system: CCRF-CEM leukemia
COLO 205 colon = system: COLO 205 colon
DU-145 prostate = system: DU-145 prostate
EKVX NSCLC = system: EKVX NSCLC
HCC-2998 colon = system: HCC-2998 colon
HCT-116 colon = system: HCT-116 colon
HCT-15 colon = system: HCT-15 colon
HL-60(TB) leukemia = system: HL-60(TB) leukemia
HOP-62 NSCLC = system: HOP-62 NSCLC
HOP-92 NSCLC = system: HOP-92 NSCLC
HS 578T breast = system: HS 578T breast
HT29 colon = system: HT29 colon
IGROV1 ovarian = system: IGROV1 ovarian
K-562 leukemia = system: K-562 leukemia
KM12 colon = system: KM12 colon
LOX IMVI melanoma = system: LOX IMVI melanoma
M14 melanoma = system: M14 melanoma
MALME-3M melanoma = system: MALME-3M melanoma
MCF7 breast = system: MCF7 breast
MDA-MB-231 breast = system: MDA-MB-231 breast
MDA-MB-435 = system: MDA-MB-435
MDA-N = system: MDA-N
MOLT-4 leukemia = system: MOLT-4 leukemia
NCI-H226 lung = system: NCI-H226 lung
NCI-H23 lung = system: NCI-H23 lung
NCI-H460 lung = system: NCI-H460 lung
NCI-H522 lung = system: NCI-H522 lung
NCI/ADR-RES ovarian = system: NCI/ADR-RES ovarian
OVCAR-3 ovarian = system: OVCAR-3 ovarian
OVCAR-4 ovarian = system: OVCAR-4 ovarian
OVCAR-5 ovarian = system: OVCAR-5 ovarian
OVCAR-8 ovarian = system: OVCAR-8 ovarian
PC-3 prostate = system: PC-3 prostate
RPMI-8226 leukemia = system: RPMI-8226 leukemia
RXF 393 renal = system: RXF 393 renal
SF-268 CNS = system: SF-268 CNS
SF-295 CNS = system: SF-295 CNS
SF-539 CNS = system: SF-539 CNS
SK-MEL-2 melanoma = system: SK-MEL-2 melanoma
SK-MEL-28 melanoma = system: SK-MEL-28 melanoma
SK-MEL-5 melanoma = system: SK-MEL-5 melanoma
SK-OV-3 ovarian = system: SK-OV-3 ovarian
SN12C renal = system: SN12C renal
SNB-19 CNS = system: SNB-19 CNS
SNB-75 CNS = system: SNB-75 CNS
SR leukemia = system: SR leukemia
SW-620 colon = system: SW-620 colon
T-47D breast = system: T-47D breast
TK-10 renal = system: TK-10 renal
U251 CNS = system: U251 CNS
UACC-257 melanoma = system: UACC-257 melanoma
UACC-62 melanoma = system: UACC-62 melanoma
UO-31 renal = system: UO-31 renal

`C1CSCCCSCCCSCCCSCCCSC1` showed a TGI (786-0 renal) of over 100 µM, a TGI (A498 renal) of over 78.1 µM and a TGI (A549 NSCLC) of over 100 µM. It also gave a TGI (ACHN renal) of over 100 µM, a TGI (BT-549 breast) of over 88.5 µM and a TGI (CAKI-1 renal) of 48.8 µM. For the same compound, the TGI (CCRF-CEM leukemia) was 32.4 µM, the TGI (COLO 205 colon) was 34.5 µM and the TGI (DU-145 prostate) was over 100 µM. For the same compound, the TGI (EKVX NSCLC) was over 100 µM, the TGI (HCC-2998 colon) was over 100 µM and the TGI (HCT-116 colon) was over 100 µM. The TGI (HCT-15 colon) was over 100 µM, the TGI (HL-60(TB) leukemia) was 36.5 µM and the TGI (HOP-62 NSCLC) was over 100 µM. It also gave a TGI (HOP-92 NSCLC) of over 93.4 µM, a TGI (HS 578T breast) of over 100 µM and a TGI (HT29 colon) of over 63.2 µM. It also gave a TGI (IGROV1 ovarian) of over 87.1 µM, a TGI (K-562 leukemia) of over 80 µM and a TGI (KM12 colon) of over 100 µM. It also gave a TGI (LOX IMVI melanoma) of 61.3 µM, a TGI (M14 melanoma) of over 100 µM and a TGI (MALME-3M melanoma) of over 100 µM. It also gave a TGI (MCF7 breast) of over 76.7 µM, a TGI (MDA-MB-231 breast) of over 88.4 µM and a TGI (MDA-MB-435) of over 100 µM. The TGI (MDA-N) was over 100 µM, the TGI (MOLT-4 leukemia) was 38.1 µM and the TGI (NCI-H226 lung) was over 77.2 µM. It also gave a TGI (NCI-H23 lung) of over 100 µM, a TGI (NCI-H460 lung) of over 51.4 µM and a TGI (NCI-H522 lung) of 81.2 µM. It also gave a TGI (NCI/ADR-RES ovarian) of over 100 µM, a TGI (OVCAR-3 ovarian) of over 100 µM and a TGI (OVCAR-4 ovarian) of over 100 µM. The TGI (OVCAR-5 ovarian) was over 100 µM, the TGI (OVCAR-8 ovarian) was over 100 µM and the TGI (PC-3 prostate) was over 90.2 µM. The TGI (RPMI-8226 leukemia) was 36.9 µM, the TGI (RXF 393 renal) was over 100 µM and the TGI (SF-268 CNS) was over 100 µM. For the same compound, the TGI (SF-295 CNS) was over 100 µM, the TGI (SF-539 CNS) was over 100 µM and the TGI (SK-MEL-2 melanoma) was over 95.4 µM. For the same compound, the TGI (SK-MEL-28 melanoma) was over 100 µM, the TGI (SK-MEL-5 melanoma) was 28.3 µM and the TGI (SK-OV-3 ovarian) was over 100 µM. For the same compound, the TGI (SN12C renal) was over 100 µM, the TGI (SNB-19 CNS) was over 100 µM and the TGI (SNB-75 CNS) was over 93.2 µM. The TGI (SR leukemia) was 29.5 µM, the TGI (SW-620 colon) was over 100 µM and the TGI (T-47D breast) was over 88.6 µM. The TGI (TK-10 renal) was over 100 µM, the TGI (U251 CNS) was over 100 µM and the TGI (UACC-257 melanoma) was 97.2 µM. The TGI (UACC-62 melanoma) was over 100 µM and the TGI (UO-31 renal) was over 100 µM.

`C[N+](C)(CCNC(=O)c1cccc2cc3ccccc3nc12)Cc1ccc([N+](=O)[O-])cc1` was tested, and the TGI (786-0 renal) was over 100 µM, the TGI (A498 renal) was over 100 µM and the TGI (A549 NSCLC) was over 100 µM. The TGI (ACHN renal) was over 100 µM, the TGI (BT-549 breast) was over 100 µM and the TGI (CAKI-1 renal) was over 100 µM. The TGI (CCRF-CEM leukemia) was over 100 µM, the TGI (COLO 205 colon) was over 100 µM and the TGI (DU-145 prostate) was over 100 µM. It also gave a TGI (EKVX NSCLC) of over 100 µM, a TGI (HCC-2998 colon) of over 100 µM and a TGI (HCT-116 colon) of over 100 µM. For the same compound, the TGI (HCT-15 colon) was over 100 µM, the TGI (HL-60(TB) leukemia) was over 100 µM and the TGI (HOP-62 NSCLC) was over 100 µM. For the same compound, the TGI (HOP-92 NSCLC) was over 100 µM, the TGI (HS 578T breast) was over 100 µM and the TGI (HT29 colon) was over 100 µM. The TGI (IGROV1 ovarian) was over 100 µM, the TGI (K-562 leukemia) was over 100 µM and the TGI (KM12 colon) was over 100 µM. The TGI (LOX IMVI melanoma) was over 100 µM, the TGI (M14 melanoma) was over 100 µM and the TGI (MALME-3M melanoma) was over 100 µM. For the same compound, the TGI (MCF7 breast) was over 100 µM, the TGI (MDA-MB-231 breast) was over 100 µM and the TGI (MDA-MB-435) was over 100 µM. For the same compound, the TGI (MDA-N) was over 100 µM, the TGI (MOLT-4 leukemia) was over 100 µM and the TGI (NCI-H226 lung) was over 100 µM. It also gave a TGI (NCI-H23 lung) of over 100 µM, a TGI (NCI-H460 lung) of over 100 µM and a TGI (NCI-H522 lung) of over 100 µM. For the same compound, the TGI (NCI/ADR-RES ovarian) was over 100 µM, the TGI (OVCAR-3 ovarian) was over 100 µM and the TGI (OVCAR-4 ovarian) was over 100 µM. The TGI (OVCAR-5 ovarian) was over 100 µM, the TGI (OVCAR-8 ovarian) was over 100 µM and the TGI (PC-3 prostate) was over 100 µM. For the same compound, the TGI (RPMI-8226 leukemia) was over 100 µM, the TGI (RXF 393 renal) was over 100 µM and the TGI (SF-268 CNS) was over 100 µM. It also gave a TGI (SF-295 CNS) of over 100 µM, a TGI (SF-539 CNS) of over 100 µM and a TGI (SK-MEL-2 melanoma) of over 100 µM. For the same compound, the TGI (SK-MEL-28 melanoma) was over 100 µM, the TGI (SK-MEL-5 melanoma) was over 100 µM and the TGI (SK-OV-3 ovarian) was over 100 µM. It also gave a TGI (SN12C renal) of over 100 µM, a TGI (SNB-19 CNS) of over 100 µM and a TGI (SNB-75 CNS) of over 100 µM. For the same compound, the TGI (SR leukemia) was over 100 µM, the TGI (SW-620 colon) was over 100 µM and the TGI (T-47D breast) was over 100 µM. For the same compound, the TGI (TK-10 renal) was over 100 µM, the TGI (U251 CNS) was over 100 µM and the TGI (UACC-257 melanoma) was over 100 µM. It also gave a TGI (UACC-62 melanoma) of over 100 µM and a TGI (UO-31 renal) of over 100 µM.
